pIC50: −log10 of the molar value. “And” between values parts separate entries of the source, which are not always exact repeats. Identical values can stand only once. Like-named read-outs stand apart in the source and are kept apart here.
How the values were obtained:
RAW 264.7 cells = assay: Lipid profile (prostaglandins, 2-AG, AEA and related lipids) of RAW 264.7 cell extracts, UPLC-MS/MS; assay type: cell-based, mouse; details: 30 min
human recombinant COX-2 = target: T1, human recombinant COX-2 (Homo sapiens, UniProt P35354); assay: COX-2 inhibition, oxygraphic method (oxygen electrode); assay type: biochemical; details: no preincubation phase, approximate, from initial velocities
T1 construct: purchased Cayman Chemical Co. 60122
T1 sequence (P35354 18-604): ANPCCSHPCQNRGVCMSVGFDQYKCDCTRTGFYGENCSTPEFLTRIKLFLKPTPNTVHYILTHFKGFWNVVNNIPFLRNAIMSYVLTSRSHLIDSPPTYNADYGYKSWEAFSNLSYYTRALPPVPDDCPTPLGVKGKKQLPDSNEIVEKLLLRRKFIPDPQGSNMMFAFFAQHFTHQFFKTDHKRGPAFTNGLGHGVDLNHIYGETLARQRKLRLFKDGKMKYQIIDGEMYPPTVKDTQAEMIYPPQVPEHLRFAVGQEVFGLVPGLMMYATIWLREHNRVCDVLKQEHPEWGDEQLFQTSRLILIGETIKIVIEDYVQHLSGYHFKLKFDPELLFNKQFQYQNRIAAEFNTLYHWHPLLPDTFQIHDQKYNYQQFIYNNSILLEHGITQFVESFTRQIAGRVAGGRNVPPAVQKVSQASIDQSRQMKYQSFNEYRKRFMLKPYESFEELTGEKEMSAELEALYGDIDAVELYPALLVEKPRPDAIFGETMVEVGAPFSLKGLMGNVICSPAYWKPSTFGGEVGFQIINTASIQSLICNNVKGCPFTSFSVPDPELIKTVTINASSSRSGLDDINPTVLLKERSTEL
Protocol: The assay was performed according to Meade et al. with minor modifications. An oxygen electrode chamber with integral stirring (Oxygraph System, Hansatech Instruments, King´s Lynn, U.K.) was calibrated daily to ambient temperature and air pressure. The assay buffer contained 0.1 M Tris-HCl buffer pH 7.4, 1 μM haematin, 2 mM phenol, 5 mM EDTA, 10 μM substrate (arachidonic acid or 2-AG) (final assay volume was 2 ml). After addition of (R)- or (S)-Flu-AM1 dissolved in ethanol (final assay concentration 1%), a baseline was established for 5 min before initiation of reaction by addition of 200 units ovine COX-1 or human recombinant COX-2. The change in oxygen consumption as a measurement of enzyme activity was monitored for approximately 5 min.

[1] = LPS + IFNγ 24 h, URB597 1 μM, flurbiprofen 10 μM, (R)-Flu-AM1 10 μM, median (range), n = 5–6
[2] = Treatment None (unstimulated), URB597 1 μM, flurbiprofen 10 μM, (R)-Flu-AM1 10 μM, median (range), n = 5–6

Cc1cccnc1NC(=O)[C@H](C)c1ccc(-c2ccccc2)c(F)c1 [(R)-Flu-AM1, (R)-2-(2-Fluorobiphenyl-4-yl)-N-(3-Methylpyridin-2-yl)Propanamide]
Effect on basal and LPS + INF-γ-stimulated PGD2 and PGE2 production (RAW 264.7 cells; 10 μM): almost complete inhibition | Effect upon linoleic acid-derived oxylipins (RAW 264.7 cells; 10 μM): No significant effects | Effect on levels of 2-AG in the cell extracts (RAW 264.7 cells; 10 μM, unstimulated and LPS + INF-γ-treated): not affected | 2-AG level relative to vehicle None median (RAW 264.7 cells; [1]): 0.81 (0.64–0.98) | 9,10,13-TriHOME level relative to vehicle None median (RAW 264.7 cells; [1]): 1.18 (0.90–1.49) | 9,10-DiHOME level relative to vehicle None median (RAW 264.7 cells; [1]): 0.82 (0.65–1.09) | 9,12,13-TriHOME level relative to vehicle None median (RAW 264.7 cells; [1]): 1.22 (0.79–1.60) | 9-HODE level relative to vehicle None median (RAW 264.7 cells; [1]): 1.06 (0.50–1.64) | 11-HETE level relative to vehicle None median (RAW 264.7 cells; [1]): 2.29 (0.92–7.87) | 12(13)-EpOME level relative to vehicle None median (RAW 264.7 cells; [1]): 1.02 (0.53–1.98) | 12(S)-HEPE level relative to vehicle None median (RAW 264.7 cells; [1]): 0.27 (0–0.74) | 12,13-DiHOME level relative to vehicle None median (RAW 264.7 cells; [1]): 0.93 (0.76–1.04) | 12-HETE level relative to vehicle None median (RAW 264.7 cells; [1]): 0.32 (0.10–1.05) | 13-HODE level relative to vehicle None median (RAW 264.7 cells; [1]): 1.21 (0.55–1.75) | 13-oxo-ODE level relative to vehicle None median (RAW 264.7 cells; [1]): 1.49 (0.31–2.85) | 15-HETE level relative to vehicle None median (RAW 264.7 cells; [1]): 1.33 (0.67–3.37) | AEA level relative to vehicle None median (RAW 264.7 cells; [1]): 1.01 (0.37–1.16) | LEA level relative to vehicle None median (RAW 264.7 cells; [1]): 1.13 (0.33–1.60) | OEA level relative to vehicle None median (RAW 264.7 cells; [1]): 1.03 (0.87–1.22) | PEA level relative to vehicle None median (RAW 264.7 cells; [1]): 0.91 (0.49–1.15) | PGD2 level relative to vehicle None median (RAW 264.7 cells; [1]): 3.14 (1.51–4.13) | SEA level relative to vehicle None median (RAW 264.7 cells; [1]): 0.86 (0.65–1.11) | Effect on levels of AEA and related N-acylethanolamines in the cells (RAW 264.7 cells; LPS + INF-γ-treated, ionomycin (5 μM) treated cells, URB597 1 μM, flurbiprofen and (R)-Flu-AM1 10 μM): did not affect | 2-AG level relative to vehicle None median (RAW 264.7 cells; [2]): 0.94 (0.62–1.52) | 9,10,13-TriHOME level relative to vehicle None median (RAW 264.7 cells; [2]): 1.04 (0.81–1.41) | 9,10-DiHOME level relative to vehicle None median (RAW 264.7 cells; [2]): 1.05 (0.64–1.66) | 9,12,13-TriHOME level relative to vehicle None median (RAW 264.7 cells; [2]): 1.08 (0.76–1.57) | 9-HODE level relative to vehicle None median (RAW 264.7 cells; [2]): 0.99 (0.66–2.11) | 11-HETE level relative to vehicle None median (RAW 264.7 cells; [2]): 0.55 (0.12–2.43) | 12(13)-EpOME level relative to vehicle None median (RAW 264.7 cells; [2]): 1.03 (0.51–5.45) | 12(S)-HEPE level relative to vehicle None median (RAW 264.7 cells; [2]): 0.90 (0.17–1.43) | 12,13-DiHOME level relative to vehicle None median (RAW 264.7 cells; [2]): 1.12 (0.73–1.53) | 12-HETE level relative to vehicle None median (RAW 264.7 cells; [2]): 0.94 (0.27–1.82) | 13-HODE level relative to vehicle None median (RAW 264.7 cells; [2]): 0.97 (0.71–2.66) | 13-oxo-ODE level relative to vehicle None median (RAW 264.7 cells; [2]): 1.97(0.59–3.00) | 15-HETE level relative to vehicle None median (RAW 264.7 cells; [2]): 1.37 (0–2.72) | AEA level relative to vehicle None median (RAW 264.7 cells; [2]): 0.65 (0.39–0.86) | LEA level relative to vehicle None median (RAW 264.7 cells; [2]): 1.07 (0.21–1.26) | OEA level relative to vehicle None median (RAW 264.7 cells; [2]): 1.01 (0.79–1.11) | PEA level relative to vehicle None median (RAW 264.7 cells; [2]): 0.89 (0.74–1.06) | PGD2 level relative to vehicle None median (RAW 264.7 cells; [2]): 0 (0–0.25) | PGE2 level relative to vehicle None median (RAW 264.7 cells; [2]): 0 (0–0.25) | SEA level relative to vehicle None median (RAW 264.7 cells; [2]): 0.90 (0.52–1.02) | pIC50 (human recombinant COX-2; 10 μM 2-AG, read-out: IC50 COX-2 (2-AG)): 6.00 and ~6.00 | pIC50 (human recombinant COX-2; 10 μM arachidonic acid, read-out: IC50 COX-2 (arachidonic acid)): 4.70 and ~4.70

Reference: publication PMC4583449, “Characterisation of (R)-2-(2-Fluorobiphenyl-4-yl)-N-(3-Methylpyridin-2-yl)Propanamide as a Dual Fatty Acid Amide Hydrolase: Cyclooxygenase Inhibitor” (PLoS ONE, 2015)
